Source: patent publication US12590123B2, “Compounds and methods for treating cancer, viral infections, and allergic conditions” (Washington University, priority 2019, dated 2026)
Read-outs that look alike come from different tables or passages of the source.

Key:
Format in all cases: biochemical
[1] = molecular target: recombinant thrombin (Homo sapiens, UniProt P00734); assay: Chromogenic kinetic enzyme assay of thrombin (S2238)
Experimental: (§1) Using GraphPad Prism (GraphPad Software, San Diego, CA), a four-parameter curve fit was used to determine the inhibitor IC50s from a plot of the mean reaction velocity versus the inhibitor concentration. The IC50 values represent the average of three or more separate experimental determinations. Apparent Ki values were calculated from the IC50 values using the Cheng and Prusoff equation (Ki=IC50/(1+[S]/Km).
(§2) Using GraphPad Prism version 6.04 software program, (GraphPad Software, San Diego, CA, graphpad.com), a four parameter curve fit was used to determine the inhibitor IC50s from a plot of the mean reaction velocity versus the inhibitor concentration.
(§3) Fluorescent inhibitor and chromogenic proteolytic assays were performed for compounds prepared in Example 11 in general accordance with the procedures described in Example 9.

[2] = molecular target: T1, matriptase (Homo sapiens, UniProt Q9Y5Y6); assay: Fluorescent kinetic enzyme assay of matriptase activity (Boc-QAR-AMC)
T1 construct: purchased R&D Systems 3946-SE-010
T1 sequence (Q9Y5Y6 615-855 limits assumed): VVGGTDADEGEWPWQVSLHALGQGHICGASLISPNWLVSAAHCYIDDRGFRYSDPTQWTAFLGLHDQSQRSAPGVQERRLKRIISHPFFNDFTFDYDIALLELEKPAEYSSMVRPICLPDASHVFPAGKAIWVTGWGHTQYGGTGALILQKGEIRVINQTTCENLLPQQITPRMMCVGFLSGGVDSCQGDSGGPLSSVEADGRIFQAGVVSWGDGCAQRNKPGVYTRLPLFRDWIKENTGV

[3] = molecular target: T2, activated hepsin (Homo sapiens, UniProt P05981); assay: Fluorescent kinetic enzyme assay of hepsin activity (Boc-QAR-AMC)
T2 construct: purchased R&D Systems 4776-SE-010

[4] = molecular target: Factor Xa (Homo sapiens, UniProt P00742); assay: Chromogenic kinetic enzyme assay of Factor Xa (S2222); settings: Table 2; chromogenic assay; read-out: Factor Xa* (IC50 nM)
Experimental: as §1, §2, §3

[5] = molecular target: T3, recombinant HGFA serine protease domain (Homo sapiens, UniProt Q04756); assay: Fluorescent kinetic enzyme assay of HGFA activity (Boc-QLR-AMC)
T3 construct: His6 tag (N); seven amino acid spacer plus TEV cleavage site (N); made in house; host or cells: High 5 insect cells (baculovirus; Sf9 for virus production)
T3 sequence (Q04756 373-655): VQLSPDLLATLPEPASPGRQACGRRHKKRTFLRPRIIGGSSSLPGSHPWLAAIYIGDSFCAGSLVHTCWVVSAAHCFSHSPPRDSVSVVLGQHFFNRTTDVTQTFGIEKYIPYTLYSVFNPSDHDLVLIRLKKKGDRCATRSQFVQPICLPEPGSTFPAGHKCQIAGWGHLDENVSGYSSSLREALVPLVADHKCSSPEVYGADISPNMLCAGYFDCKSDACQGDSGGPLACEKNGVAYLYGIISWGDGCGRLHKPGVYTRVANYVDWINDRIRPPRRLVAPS
Description: The compounds prepared in Examples 1 to 8 were subjected to a series of inhibitions studies. The compounds were first tested in an HGFA enzymatic assay using the fluorogenic substrate Boc-QLR-AMC with a recombinant form of the HGFA serine protease domain.
This PCR product was cloned into the SfoI-HindIII sites of a modified pFastBac HT baculovirus expression vector (Addgene, Cambridge, MA). This vector contains a six amino His tag followed by a seven amino spacer and a seven amino acid TEV cleavage site placed immediately downstream of the honey bee melittin signal peptide. Using a modified Bac to Bac Expression System (Life Technologies, Carlsbad, CA), recombinant HGFA bacmids were obtained by transforming DH10Bac Escherichia coli cells. To obtain HGFA containing baculovirus, purified bacmids were transfected into Sf9 insect cells. After 5 days in culture at 27° C., media was harvested from transfected Sf9 cells. This media was used to prepare baculovirus infected insect cells (BIICs). These BIIICs were used to infect High 5 insect cells. Four days post infection, media was harvested, and recombinant protein was prepared as follows. Media was chilled to 4° C. and spun at 4000×g for 20 minutes (all subsequent steps were performed at 4° C. unless noted). Clarified media was passed first through a Whatman GF/B 1 um (#1821-047, GE Healthcare Life Sciences, Piscataway, NJ) and then a 0.22 μm PES membrane (#99955, TPP Techno Plastic Products AG, Trasadingen, Switzerland) and then concentrated using a Pall Centramate tangential flow system and Centramate T-series Cassette (#OS010T12, Pall Corporation, Port Washington, NY). Concentrated media was then buffer exchanged in two steps, five volumes of 50 mM Na-phosphate, 500 mM NaCl, pH 6.2, followed by five volumes of 50 mM Na-phosphate, 500 mM NaCl, pH 7.5. […] After mixing this slurry for 12 hours, nickel agarose beads were allowed to settle by gravity and then loaded into a column. Beads were washed with buffer (25 mM Na-phosphate, 500 mM NaCl, 25 mM imidazole, pH 8) and the bound protein eluted using (25 mM Na-phosphate, 500 mM NaCl, 250 mM imidazole, pH 8). Using a Amicon Ultra-4 Centrifugal filters (#UFC801008, Merck Millipore, Ltd., Tullagreen, Ireland), peak protein fractions were concentrated and run over a Superdex-200 10/300 GL column (GE Healthcare Life Sciences, Piscataway, NJ) in 10 mM Tris, 200 mM NaCl, 0.2 mM EDTA, pH 8. HGFA containing fractions were pooled, concentrated, made 50% glycerol, and stored at minus 20° C. Protein was quantitated using a modified Lowry protein assay (#500-0006, Bio-Rad Laboratories, Hercules, CA) and specific activity determined using Boc-QLR-AMC substrate.
Fluorescent kinetic enzyme assays of HGFA, matriptase, and hepsin activity: Compounds (0-20 μM final concentration in reaction) were diluted in DMSO (2% DMSO final concentration in reaction) and then mixed with either recombinant HGFA serine protease domain, matriptase (#3946-SE-010, R&D Systems, Minneapolis, Minnesota), or activated hepsin* (#4776-SE-010, R&D Systems, Minneapolis, Minnesota) in black 384 well plates (Corning #3575. Coming, NY). The final assay concentration for HGFA, matriptase, and hepsin, were 6.25 nM, 0.2 nM, and 0.3 nM, respectively in TNC buffer (25 mM Tris, 150 mM NaCl, 5 mM CaCl2, 0.01% Triton X-100, pH 8). After thirty minutes of incubation at room temperature, Boc-QLR-AMC substrate was added (HGFA assay) or Boc-QAR-AMC substrate (matriptase, and hepsin assays). Fluorescence (excitation at 380 nm and emission at 460 nm) was kinetically measured at room temperature over a 1 hour time period using a Biotek Synergy 2 plate reader (Winnoski, VT). From a plot of the mean reaction velocity versus the inhibitor concentration, a non-linear four parameter curve fit was performed using GraphPad Prism (GraphPad Software, San Diego, CA) to determine inhibitor IC50s. The IC50 values were determined from the average of three or more separate experimental determinations. […]

[6] = Table 2, chromogenic assay, read-out: Thrombin* (IC50 nM)
[7] = Table 2, read-out: Matriptase (IC50 nM)
[8] = Table 2, read-out: Hepsin (IC50 nM)
[9] = Table 2, read-out: HGFA (IC50 nM)

T2 sequence (P05981 163-417 limits assumed): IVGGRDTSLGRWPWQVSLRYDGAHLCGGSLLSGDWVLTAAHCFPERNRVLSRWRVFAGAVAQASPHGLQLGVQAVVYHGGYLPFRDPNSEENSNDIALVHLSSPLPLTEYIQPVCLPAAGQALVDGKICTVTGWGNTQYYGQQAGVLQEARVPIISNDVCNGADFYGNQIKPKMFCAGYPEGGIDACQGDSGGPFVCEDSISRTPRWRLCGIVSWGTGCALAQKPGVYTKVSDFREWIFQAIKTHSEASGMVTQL
T2 sequence (P05981 1-162 partner limits assumed): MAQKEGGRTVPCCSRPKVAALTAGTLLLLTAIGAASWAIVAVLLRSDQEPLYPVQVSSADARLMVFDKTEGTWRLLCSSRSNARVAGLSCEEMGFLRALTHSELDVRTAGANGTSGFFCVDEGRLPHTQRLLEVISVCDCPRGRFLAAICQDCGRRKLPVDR
Sequence of Factor Xa (P00742 235-488 limits assumed): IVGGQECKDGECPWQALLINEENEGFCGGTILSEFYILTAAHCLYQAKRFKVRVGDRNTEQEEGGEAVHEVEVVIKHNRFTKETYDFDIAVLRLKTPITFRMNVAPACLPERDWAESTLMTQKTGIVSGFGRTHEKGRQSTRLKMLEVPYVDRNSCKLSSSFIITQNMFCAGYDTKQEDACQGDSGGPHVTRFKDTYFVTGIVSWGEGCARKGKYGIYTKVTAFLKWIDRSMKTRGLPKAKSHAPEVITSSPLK
Sequence of Factor Xa (P00742 41-179 partner limits assumed): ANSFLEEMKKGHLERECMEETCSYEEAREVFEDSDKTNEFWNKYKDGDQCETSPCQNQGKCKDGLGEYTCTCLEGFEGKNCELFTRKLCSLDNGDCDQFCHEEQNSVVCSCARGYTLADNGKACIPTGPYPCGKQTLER

| SMILES | IC50 [1, 6] [nM] | IC50 [2, 7] [nM] | IC50 [3, 8] [nM] | IC50 [4] [nM] | IC50 [5, 9] [nM] | IC50 ([5]; Table 3, average of three experiments, read-out: HGFA IC50) [nM] | IC50 ([1]; Table 3, average of three experiments, read-out: Thrombin IC50) [nM] | IC50 ([2]; Example 12, read-out: IC50 for matriptase) [nM] | IC50 ([3]; Example 12, read-out: IC50 for hepsin) [nM] |
| --- | --- | --- | --- | --- | --- | --- | --- | --- | --- |
| CC(=O)N[C@@H](CCC(N)=O)C(=O)N[C@@H](Cc1ccccc1)C(=O)NC(CCCNC(=N)N)C(=O)c1nc2ccccc2s1 (stereo partly drawn) [MM3144, Ac-QFR-kbt] | > 20000 |  |  |  |  |  |  |  |  |
| CSCCC[C@H](NC(C)=O)C(=O)N[C@@H](CCC(N)=O)C(=O)N[C@@H](Cc1ccccc1)C(=O)N[C@@H](CCCNC(=N)N)C(=O)c1nc2ccccc2s1 [MM3130, Ac-MQFR-kbt] | > 20000 |  |  |  |  |  |  |  |  |
| CC(=O)N[C@H]1Cc2ccc(cc2)OCCCC[C@@H](C(=O)N[C@@H](CCCNC(=N)N)C(=O)c2nc3ccccc3s2)NC(=O)[C@@H](Cc2c[nH]c3ccccc23)NC1=O [VD4162B] | 14600 |  |  | 1110 |  |  |  |  |  |
| CC(=O)N[C@H]1CCC(=O)NCCCC[C@@H](C(=O)N[C@@H](CCCNC(=N)N)C(=O)c2nc3ccccc3s2)NC(=O)[C@H](CC(C)C)NC1=O [VD2169, (2S,5S,14S)-14-acetamido-N—((S)-1-(benzo[d]thiazol-2-yl)-5-guanidino-1-oxopentan-2-yl)-2-isobutyl-3,11,15-trioxo-1,4,10-triazacyclopentadecane-5-carboxamide] |  | 3.1 | 8.4 | 1710 |  |  |  |  |  |
| CC(C)C[C@H](NC(=O)OC1(Cc2ccccc2)CCNCC1)C(=O)N[C@@H](CCCNC(=N)N)C(=O)c1nc2ccccc2s1 [Compound 8b, 4-benzylpiperidin-4-yl((S)-1-(((S)-1-(benzo[d]thiazol-2-yl)-5-guanidino-1-oxopentan-2-yl)amino)-4-methyl-1-oxopentan-2-yl)carbamate] |  |  |  |  |  | 1200 | > 20000 | 30 | 0.6 |
| CC(=O)N[C@H]1CCCCn2cc(nn2)C[C@H](C(=O)N[C@H](CCCNC(=N)N)C(=O)c2nc3ccccc3s2)NC(=O)[C@H](CC(C)C)NC1=O [VD4118B] |  | 91.2 | 137 | 9540 | 10900 |  |  |  |  |

Now from value to compound, other results behind:

| IC50 [1, 6] [nM] | IC50 [2, 7] [nM] | IC50 [3, 8] [nM] | IC50 [4] [nM] | IC50 [5, 9] [nM] | SMILES | IC50 ([5]; Table 3, average of three experiments, read-out: HGFA IC50) [nM] | IC50 ([1]; Table 3, average of three experiments, read-out: Thrombin IC50) [nM] | IC50 ([2]; Example 12, read-out: IC50 for matriptase) [nM] | IC50 ([3]; Example 12, read-out: IC50 for hepsin) [nM] |
| --- | --- | --- | --- | --- | --- | --- | --- | --- | --- |
| > 20000 | 6.1 | 44 | 17000 |  | CC(=O)N[C@H]1CC(=O)NCCCC[C@@H](C(=O)N[C@@H](CCCNC(=N)N)C(=O)c2nc3ccccc3s2)NC(=O)[C@H](Cc2ccc(O)cc2)NC1=O [VD3158, (3S,6S,14S)-6-acetamido-N—((S)-1-(benzo[d]thiazol-2-yl)-5-guanidino-1-oxopentan-2-yl)-3-(4-hydroxybenzyl)-2,5,8-trioxo-1,4,9-triazacyclotetradecane-14-carboxamide] |  |  |  |  |
|  | 19.6 | 25.1 | 1160 |  | CC(=O)N[C@H]1CCCCNC(=O)C[C@@H](C(=O)N[C@@H](CCCNC(=N)N)C(=O)c2nc3ccccc3s2)NC(=O)[C@H](CC(C)C)NC1=O [VD2167, (2S,5S,13S)-13-acetamido-N—((S)-1-(benzo[d]thiazol-2-yl)-5-guanidino-1-oxopentan-2-yl)-2-isobutyl-3,7,14-trioxo-1,4,8-triazacyclotetradecane-5-carboxamide] |  |  |  |  |
|  | 19.5 | 117 | 1930 | 15600 | CC(=O)N[C@H]1CCCCn2cc(nn2)C[C@H](C(=O)N[C@@H](CCCNC(=N)N)C(=O)c2nc3ccccc3s2)NC(=O)[C@H](CC(C)C)NC1=O [VD4118] |  |  |  |  |
|  | 0.86 | 0.46 | 1550 | 11400 | CC(C)C[C@@H]1NC(=O)[C@@H](N)CC(=O)NCCCC[C@@H](C(=O)N[C@@H](CCCNC(=N)N)C(=O)c2nc3ccccc3s2)NC1=O [VD2055, (3S,6S,14S)-6-amino-N—((S)-1-(benzo[d]thiazol-2-yl)-5-guanidino-1-oxopentan-2-yl)-3-isobutyl-2,5,8-trioxo-1,4,9-triazacyclotetradecane-14-carboxamide] |  |  |  |  |
|  | 4.4 | 1.7 | 723 | 4470 | CC(=O)N[C@H]1CCCCNC(=O)CC[C@@H](C(=O)N[C@@H](CCCNC(=N)N)C(=O)c2nc3ccccc3s2)NC(=O)[C@H](CC(C)C)NC1=O [VD2064, (2S,5S,14S)-14-acetamido-N—((S)-1-(benzo[d]thiazol-2-yl)-5-guanidino-1-oxopentan-2-yl)-2-isobutyl-3,8,15-trioxo-1,4,9-triazacyclopentadecane-5-carboxamide] |  |  |  |  |
| > 20000 | 2.5 | 8.8 |  | 13700 | CC(=O)N[C@H]1CC(=O)NCCCC[C@@H](C(=O)N[C@@H](CCCNC(=N)N)C(=O)c2nc3ccccc3s2)NC(=O)[C@H](C)NC1=O [VD3141, (3S,6S,14S)-6-acetamido-N—((S)-1-(benzo[d]thiazol-2-yl)-5-guanidino-1-oxopentan-2-yl)-3-methyl-2,5,8-trioxo-1,4,9-triazacyclotetradecane-14-carboxamide] |  |  |  |  |
| 7940 | 41.3 | 136 | 1360 |  | CC(=O)N[C@H]1CC(=O)NCCCC[C@@H](C(=O)N[C@@H](CCCNC(=N)N)C(=O)c2nccs2)NC(=O)[C@H](CC(C)C)NC1=O [VD3076, (3S,6S,14S)-6-acetamido-N—((S)-5-guanidino-1-oxo-1-(thiazol-2-yl)pentan-2-yl)-3-isobutyl-2,5,8-trioxo-1,4,9-triazacyclotetradecane-14-carboxamide] |  |  |  |  |
